The test system of assay [1] is K562 vector control viability, CellTiter-Glo, 18 h. Kind of assay: K562 empty-vector cell viability, concentration-response, counterscreen for ABCB6 inhibitor project, CellTiter-Glo luminescence, PowderSet01 powders (AID 651652).
Experiment in assay [2]: as above
To be noted: K562 vector control viability, CellTiter-Glo, 18 h; at 100 µM (top of the series).

The source made the active and inactive calls.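 The calls were made as follows: active = viability at the highest tested concentration below 50%; inactive = the rest.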

For the compound `CCc1ccc(NC(=O)c2nc(S(=O)(=O)Cc3ccccc3)ncc2Cl)cc1`, the EC50 in assay [1] was 4.51 µM.
`CCOc1ccccc1NC(=O)c1nc(S(=O)(=O)Cc2cccc(C)c2)ncc1Cl`: the EC50 in assay [1] is 11.9 µM.
In the case of `CC(=O)Nc1ccc(NC(=O)c2nc(S(=O)(=O)Cc3ccccc3)ncc2Cl)cc1`, in assay [2], the viability is 58% (inactive).
As for `CC(=O)Nc1ccc(NC(=O)c2nc(S(=O)(=O)Cc3cccc(C)c3)ncc2Cl)cc1`, in assay [2], the viability is 51.9% (inactive).

Values taken from PubChem BioAssay AID651652 (NMMLSC, 2012).
